Our source for the EC50, Activity and Tm values is ChEMBL document CHEMBL3390848, “Affinity selection and sequence-activity relationships of HIV-1 membrane fusion inhibitors directed at the drug-resistant variants” (Medchemcomm, 2010).

The test system of assay [1] is Human immunodeficiency virus 1. In words: Antiviral activity against HIV1 NL4-3 harboring gp41 D36G mutant infected in human HeLa cells expressing CD4-LTR-beta-gal assessed as inhibition of viral replication after 48 hrs by MAGI assay. It is filed as functional, organism-based.
Assay [2] concerns Human immunodeficiency virus 1. The experiment in a line: Binding affinity to HIV1 His-tagged N-terminal heptad repeat of envelope glycoprotein gp41 assessed as recovery of N36-drug complex after 2 hrs by LC-MS analysis. Details: concentration or dose not given beside the values.
The test system of assay [3] is Human immunodeficiency virus 1. In words: Thermal stability of HIV1 envelope glycoprotein gp41 His-tagged N-terminal heptad repeat N36-drug complex assessed as thermal unfolding transition state by measuring molar ellipticity at 4 to 90 degC by circular dichroic spectra analysis.

Residues, ends and D or L forms follow the SMILES beside them.

Usually EC50 stands for the concentration at which the effect is half-maximal. Broadly, the Tm is the temperature at which the thermal transition is half complete. In the case of `CC[C@H](C)[C@H](NC(=O)[C@H](CC(C)C)NC(=O)[C@H](CCC(=O)O)NC(=O)[C@H](CCC(=O)O)NC(=O)[C@@H](NC(=O)[C@H](CCCCN)NC(=O)[C@H](CCCCN)NC(=O)[C@@H](NC(=O)[C@H](Cc1ccc(O)cc1)NC(=O)[C@H](CCC(=O)O)NC(=O)[C@H](CCC(=O)O)NC(=O)[C@@H](NC(=O)[C@H](CCCCN)NC(=O)[C@H](CCCCN)NC(=O)[C@H](CC(=O)O)NC(=O)[C@H](Cc1c[nH]c2ccccc12)NC(=O)[C@H](CCC(=O)O)NC(=O)[C@H](CCC(=O)O)NC(=O)[C@H](Cc1c[nH]c2ccccc12)NC(C)=O)[C@@H](C)CC)[C@@H](C)O)[C@@H](C)CC)C(=O)N[C@@H](CCCCN)C(=O)N[C@@H](CCCCN)C(=O)N[C@@H](CO)C(=O)N[C@@H](CCC(=O)O)C(=O)N[C@@H](CCC(=O)O)C(=O)N[C@@H](Cc1c[nH]c2ccccc12)C(=O)N[C@@H](CCC(N)=O)C(=O)N[C@@H](CCCCN)C(=O)N[C@@H](CCCCN)C(=O)N[C@@H](CC(N)=O)C(=O)N[C@@H](CCC(=O)O)C(=O)N[C@@H](CCC(=O)O)C(=O)N[C@@H](CCC(=O)O)C(=O)N[C@@H](CC(C)C)C(=O)N[C@@H](CCCCN)C(=O)N[C@@H](CCCCN)C(N)=O` (Ac-WEEWDKKIEEYTKKIEELIKKSEEWQKKNEEELKK-NH2), the EC50 in assay [1] turned out to be 1.7 nM. Further, in assay [2], the Activity was 7.1%. Besides, in assay [3], the Tm amounted to 77.1 °C.
In the case of `CC[C@H](C)[C@H](NC(=O)[C@H](CC(C)C)NC(=O)[C@H](CCC(=O)O)NC(=O)[C@H](CCC(=O)O)NC(=O)[C@@H](NC(=O)[C@H](CCCCN)NC(=O)[C@H](CCCCN)NC(=O)[C@@H](NC(=O)[C@H](Cc1ccc(O)cc1)NC(=O)[C@H](CCC(=O)O)NC(=O)[C@H](CCC(=O)O)NC(=O)[C@@H](NC(=O)[C@H](CCCCN)NC(=O)[C@H](CCCCN)NC(=O)[C@H](CC(=O)O)NC(=O)[C@H](Cc1c[nH]c2ccccc12)NC(=O)[C@H](CCC(=O)O)NC(=O)[C@H](CCC(=O)O)NC(=O)[C@H](Cc1c[nH]c2ccccc12)NC(C)=O)[C@@H](C)CC)[C@@H](C)O)[C@@H](C)CC)C(=O)N[C@@H](CCCCN)C(=O)N[C@@H](CCCCN)C(=O)N[C@@H](CO)C(=O)N[C@@H](CCC(=O)O)C(=O)N[C@@H](CCC(=O)O)C(=O)NCC(=O)N[C@@H](CCC(N)=O)C(=O)N[C@@H](CCCCN)C(=O)N[C@@H](CCCCN)C(=O)N[C@@H](CC(N)=O)C(=O)N[C@@H](CCC(=O)O)C(=O)N[C@@H](CCC(=O)O)C(=O)N[C@@H](CCC(=O)O)C(=O)N[C@@H](CC(C)C)C(=O)N[C@@H](CCCCN)C(=O)N[C@@H](CCCCN)C(N)=O` (Ac-WEEWDKKIEEYTKKIEELIKKSEEGQKKNEEELKK-NH2), in assay [1], the 50% effective concentration (EC50) turned out to be 2.3 nM. Besides, in assay [2], the Activity is 3.8%. In addition, the Tm in assay [3] amounted to 71 °C.
In the same order, the values of `CC[C@H](C)[C@H](NC(=O)[C@H](CC(C)C)NC(=O)[C@H](CCC(=O)O)NC(=O)[C@H](CCC(=O)O)NC(=O)[C@@H](NC(=O)[C@H](CCCCN)NC(=O)[C@H](CCCCN)NC(=O)[C@@H](NC(=O)[C@H](Cc1ccc(O)cc1)NC(=O)[C@H](CCC(=O)O)NC(=O)[C@H](CCC(=O)O)NC(=O)[C@@H](NC(=O)[C@H](CCCCN)NC(=O)[C@H](CCCCN)NC(=O)[C@H](CC(=O)O)NC(=O)[C@H](Cc1c[nH]c2ccccc12)NC(=O)[C@H](CCC(=O)O)NC(=O)[C@H](CCC(=O)O)NC(=O)[C@H](Cc1c[nH]c2ccccc12)NC(C)=O)[C@@H](C)CC)[C@@H](C)O)[C@@H](C)CC)C(=O)N[C@@H](CCCCN)C(=O)N[C@@H](CCCCN)C(=O)N[C@@H](CO)C(=O)N[C@@H](CCC(=O)O)C(=O)N[C@@H](CCC(=O)O)C(=O)N[C@@H](Cc1cnc[nH]1)C(=O)N[C@@H](CCC(N)=O)C(=O)N[C@@H](CCCCN)C(=O)N[C@@H](CCCCN)C(=O)N[C@@H](CC(N)=O)C(=O)N[C@@H](CCC(=O)O)C(=O)N[C@@H](CCC(=O)O)C(=O)N[C@@H](CCC(=O)O)C(=O)N[C@@H](CC(C)C)C(=O)N[C@@H](CCCCN)C(=O)N[C@@H](CCCCN)C(N)=O` (Ac-WEEWDKKIEEYTKKIEELIKKSEEHQKKNEEELKK-NH2) are 2 nM, 4.3% and 72.6 °C.
As to `CC[C@H](C)[C@H](NC(=O)[C@H](CC(C)C)NC(=O)[C@H](CCC(=O)O)NC(=O)[C@H](CCC(=O)O)NC(=O)[C@@H](NC(=O)[C@H](CCCCN)NC(=O)[C@H](CCCCN)NC(=O)[C@@H](NC(=O)[C@H](Cc1ccc(O)cc1)NC(=O)[C@H](CCC(=O)O)NC(=O)[C@H](CCC(=O)O)NC(=O)[C@@H](NC(=O)[C@H](CCCCN)NC(=O)[C@H](CCCCN)NC(=O)[C@H](CC(=O)O)NC(=O)[C@H](Cc1c[nH]c2ccccc12)NC(=O)[C@H](CCC(=O)O)NC(=O)[C@H](CCC(=O)O)NC(=O)[C@H](Cc1c[nH]c2ccccc12)NC(C)=O)[C@@H](C)CC)[C@@H](C)O)[C@@H](C)CC)C(=O)N[C@@H](CCCCN)C(=O)N[C@@H](CCCCN)C(=O)N[C@@H](CO)C(=O)N[C@@H](CCC(=O)O)C(=O)N[C@@H](CCC(=O)O)C(=O)N[C@@H](CO)C(=O)N[C@@H](CCC(N)=O)C(=O)N[C@@H](CCCCN)C(=O)N[C@@H](CCCCN)C(=O)N[C@@H](CC(N)=O)C(=O)N[C@@H](CCC(=O)O)C(=O)N[C@@H](CCC(=O)O)C(=O)N[C@@H](CCC(=O)O)C(=O)N[C@@H](CC(C)C)C(=O)N[C@@H](CCCCN)C(=O)N[C@@H](CCCCN)C(N)=O` (Ac-WEEWDKKIEEYTKKIEELIKKSEESQKKNEEELKK-NH2), the EC50 in assay [1] was 2.5 nM. Besides, the Activity in assay [2] came out at 4%. The Tm in assay [3] stood at 72.4 °C.
Regarding `CC[C@H](C)[C@H](NC(=O)[C@H](CC(C)C)NC(=O)[C@H](CCC(=O)O)NC(=O)[C@H](CCC(=O)O)NC(=O)[C@@H](NC(=O)[C@H](CCCCN)NC(=O)[C@H](CCCCN)NC(=O)[C@@H](NC(=O)[C@H](Cc1ccc(O)cc1)NC(=O)[C@H](CCC(=O)O)NC(=O)[C@H](CCC(=O)O)NC(=O)[C@@H](NC(=O)[C@H](CCCCN)NC(=O)[C@H](CCCCN)NC(=O)[C@H](CC(=O)O)NC(=O)[C@H](Cc1c[nH]c2ccccc12)NC(=O)[C@H](CCC(=O)O)NC(=O)[C@H](CCC(=O)O)NC(=O)[C@H](Cc1c[nH]c2ccccc12)NC(C)=O)[C@@H](C)CC)[C@@H](C)O)[C@@H](C)CC)C(=O)N[C@@H](CCCCN)C(=O)N[C@@H](CCCCN)C(=O)N[C@@H](CO)C(=O)N[C@@H](CCC(=O)O)C(=O)N[C@@H](CCC(=O)O)C(=O)N[C@@H](CC(N)=O)C(=O)N[C@@H](CCC(N)=O)C(=O)N[C@@H](CCCCN)C(=O)N[C@@H](CCCCN)C(=O)N[C@@H](CC(N)=O)C(=O)N[C@@H](CCC(=O)O)C(=O)N[C@@H](CCC(=O)O)C(=O)N[C@@H](CCC(=O)O)C(=O)N[C@@H](CC(C)C)C(=O)N[C@@H](CCCCN)C(=O)N[C@@H](CCCCN)C(N)=O` (Ac-WEEWDKKIEEYTKKIEELIKKSEENQKKNEEELKK-NH2), the EC50 in assay [1] is 2.5 nM. For the same compound, the Activity in assay [2] turned out to be 4%. Besides, the Tm in assay [3] is 73.4 °C.
Taken in the same sequence, the figures for `CC[C@H](C)[C@H](NC(=O)[C@H](CC(C)C)NC(=O)[C@H](CCC(=O)O)NC(=O)[C@H](CCC(=O)O)NC(=O)[C@@H](NC(=O)[C@H](CCCCN)NC(=O)[C@H](CCCCN)NC(=O)[C@@H](NC(=O)[C@H](Cc1ccc(O)cc1)NC(=O)[C@H](CCC(=O)O)NC(=O)[C@H](CCC(=O)O)NC(=O)[C@@H](NC(=O)[C@H](CCCCN)NC(=O)[C@H](CCCCN)NC(=O)[C@H](CC(=O)O)NC(=O)[C@H](Cc1c[nH]c2ccccc12)NC(=O)[C@H](CCC(=O)O)NC(=O)[C@H](CCC(=O)O)NC(=O)[C@H](Cc1c[nH]c2ccccc12)NC(C)=O)[C@@H](C)CC)[C@@H](C)O)[C@@H](C)CC)C(=O)N[C@@H](CCCCN)C(=O)N[C@@H](CCCCN)C(=O)N[C@@H](CO)C(=O)N[C@@H](CCC(=O)O)C(=O)N[C@@H](CCC(=O)O)C(=O)N[C@@H](CCCCN)C(=O)N[C@@H](CCC(N)=O)C(=O)N[C@@H](CCCCN)C(=O)N[C@@H](CCCCN)C(=O)N[C@@H](CC(N)=O)C(=O)N[C@@H](CCC(=O)O)C(=O)N[C@@H](CCC(=O)O)C(=O)N[C@@H](CCC(=O)O)C(=O)N[C@@H](CC(C)C)C(=O)N[C@@H](CCCCN)C(=O)N[C@@H](CCCCN)C(N)=O` (Ac-WEEWDKKIEEYTKKIEELIKKSEEKQKKNEEELKK-NH2) were 2.7 nM, 4.8% and 69.2 °C.
Taken in the same sequence, the figures for `CC[C@H](C)[C@H](NC(=O)[C@H](CC(C)C)NC(=O)[C@H](CCC(=O)O)NC(=O)[C@H](CCC(=O)O)NC(=O)[C@@H](NC(=O)[C@H](CCCCN)NC(=O)[C@H](CCCCN)NC(=O)[C@@H](NC(=O)[C@H](Cc1ccc(O)cc1)NC(=O)[C@H](CCC(=O)O)NC(=O)[C@H](CCC(=O)O)NC(=O)[C@@H](NC(=O)[C@H](CCCCN)NC(=O)[C@H](CCCCN)NC(=O)[C@H](CC(=O)O)NC(=O)[C@H](Cc1c[nH]c2ccccc12)NC(=O)[C@H](CCC(=O)O)NC(=O)[C@H](CCC(=O)O)NC(=O)[C@H](Cc1c[nH]c2ccccc12)NC(C)=O)[C@@H](C)CC)[C@@H](C)O)[C@@H](C)CC)C(=O)N[C@@H](CCCCN)C(=O)N[C@@H](CCCCN)C(=O)N[C@@H](CO)C(=O)N[C@@H](CCC(=O)O)C(=O)N[C@@H](CCC(=O)O)C(=O)N1CCC[C@H]1C(=O)N[C@@H](CCC(N)=O)C(=O)N[C@@H](CCCCN)C(=O)N[C@@H](CCCCN)C(=O)N[C@@H](CC(N)=O)C(=O)N[C@@H](CCC(=O)O)C(=O)N[C@@H](CCC(=O)O)C(=O)N[C@@H](CCC(=O)O)C(=O)N[C@@H](CC(C)C)C(=O)N[C@@H](CCCCN)C(=O)N[C@@H](CCCCN)C(N)=O` (Ac-WEEWDKKIEEYTKKIEELIKKSEEPQKKNEEELKK-NH2) were 58 nM, 0% and 60.2 °C.
